Like-named read-outs stand apart in the source and are kept apart here.
Experiments:
[1] = test system: Seizures induced by pentylenetetrazol (PTZ) in mice; experiment: Pentylenetetrazol test (anticonvulsant activity); type: in vivo; conditions: for ED50: Mus musculus, ip, 0.5 h; for ED50 / ED50 PTZ: male CF-1 mice, compound i.p., pentylenetetrazol 100 mg kg^−1 i.p. 30 min after, end point suppression of clonic seizures and death; for anticonvulsant activity relative to that of the non-halogenated compounds: pentylenetetrazol test, mice, from Table 1
Protocol: Male albino mice CF-1 strain (National Institute of Virology, Mexico City) weighing 18-25 g were housed in groups of 20, at room temperature (20-24° C.), with tap water and food (pellet type Blue Bonnet) ad libitum, with a 12-h light-dark cycle. DL-2-hydroxy-2-phenyl butyramide, DL-3-hydroxy-3-phenyl pentanamide, DL-4-hydroxy-4-phenyl hexanamide and pentylenetetrazol were dissolved in water and compounds 1-10 were dissolved in a 30% polyethyleneglycol-400 solution. All the compounds used were administered intraperitoneally (i.p.). The convulsant dose of pentylenetetrazol inducing seizures and death in 100% of mice (CD100) was determined and used in the test. CD100 value obtained was 100 mg kg^1. To determine the dose-response curves five separate groups of 10-20 mice were dosed i.p. with the test compounds, and pentylenetetrazol, 100 mg kg^−1, i.p., was administered at 30 min after. The suppression of clonic seizures and death was considered the end point of the test. […] The ED50 and 95% confidence intervals were calculated by the method of Litchfield and Wilcoxon (Table 1). See Litchfield et al., J. Pharmacol. Exp. Ther. 96, 99 (1949).

[2] = test system: seizures provoked by pentylenetetrazole, bicuculline, 4-aminopyridine, thiosemicarbazide and maximal electroshock; conditions: mice; cited from earlier work
[3] = test system: hippocampal kindling; conditions: cats; cited from earlier work
[4] = test system: hippocampal kindling; conditions: rats; cited from earlier work
[5] = test system: γ-aminobutyric acid withdrawal syndrome; conditions: rats; cited from earlier work
[6] = test system: focal spike activity; conditions: genetic absence epilepsy rats of the Strasbourg model; cited from earlier work

| Compound | ED50 [1] [mg/kg] | anticonvulsant activity relative to that of the non-halogenated compounds [1] | other results |
| --- | --- | --- | --- |
| CCC(O)(C(N)=O)c1cc(C(F)(F)F)cc(C(F)(F)F)c1 (racemic) [Compound 1, DL-2-hydroxy-2-(3′,5′-bistrifluoromethylphenyl) butyramide] | 10 | more than fivefold, sixfold or sevenfold | – |
| CCC(O)(C(N)=O)c1ccc(C(F)(F)F)cc1 (racemic) [Compound 2, DL-2-hydroxy-2-(4′-trifluoromethylphenyl)butyramide] | 23 | twice, threefold or more than fourfold | – |
| CCC(O)(C(N)=O)c1ccc(Cl)c(Cl)c1 (racemic) [Compound 3, DL-2-hydroxy-2-(3′,4′-dichlorophenyl)butyramide] | 10 | more than fivefold, sixfold or sevenfold | – |
| CCC(O)(C(N)=O)c1cccc(Br)c1 (racemic) [Compound 4, DL-2-hydroxy-2-(3′-bromophenyl)butyramide] | 8 | more than fivefold, sixfold or sevenfold | – |
| CCC(O)(C(N)=O)c1ccc(Br)cc1 (racemic) [Compound 5, DL-2-hydroxy-2-(4′-bromophenyl)butyramide] | 8 | more than fivefold, sixfold or sevenfold | – |
| CCC(O)(C(N)=O)c1cccc([N+](=O)[O-])c1 (racemic) [Compound 6, DL-2-hydroxy-2-(3′-nitrophenyl)butyramide] | 36 | twice, threefold or more than fourfold | – |
| CCC(O)(CC(N)=O)c1ccc(Cl)c(Cl)c1 (racemic) [Compound 7, DL-3-hydroxy-3-(3′,4′-dichlorophenyl)pentanamide] | 16 | twice, threefold or more than fourfold | – |
| CCC(O)(CC(N)=O)c1ccc(Br)cc1 (racemic) [Compound 8, DL-3-hydroxy-3-(4′-bromophenyl) pentanamide] | 8 | more than fivefold, sixfold or sevenfold | – |
| CCC(O)(CCC(N)=O)c1ccc(Cl)c(Cl)c1 (racemic) [Compound 9, DL-4-hydroxy-4-(3′,4′-dichlorophenyl)hexanamide] | 12 | twice, threefold or more than fourfold | – |
| CCC(O)(CCC(N)=O)c1ccc(Br)cc1 (racemic) [Compound 10, DL-4-hydroxy-4-(4′-bromophenyl)hexanamide] | 9 | more than fivefold, sixfold or sevenfold | – |
| CCC(O)(C(N)=O)c1ccccc1 (racemic) [DL-2-hydroxy-2-Phenyl butyramide, DL-2-hydroxy-2-phenylbutyramide] | – | – | ED50 PTZ [1]: 58 mgkg^−1; protection against seizures [2]: protect mice against seizures; protection against hippocampal kindling [3]: protect cats and rats against hippocampal kindling; protection against hippocampal kindling [4]: protect cats and rats against hippocampal kindling |
| CCC(O)(CC(N)=O)c1ccccc1 (racemic) [DL-3-hydroxy-3-Phenyl pentanamide, DL-3-hydroxy-3-phenylpentanamide] | – | – | ED50 PTZ [1]: 49 mgkg^−1; protection against seizures [2]: protect mice against seizures; protection against hippocampal kindling [3]: protect cats and rats against hippocampal kindling; protection against hippocampal kindling [4]: protect cats and rats against hippocampal kindling; protection against γ-aminobutyric acid withdrawal syndrome [5]: protects rats against the γ-aminobutyric acid withdrawal syndrome; focal spike activity [6]: significant decrease of focal spike activity |
| CCC(O)(CCC(N)=O)c1ccccc1 (racemic) [DL-4-hydroxy-4-Phenylhexanamide, DL-4-hydroxy-4-phenylhexanamide] | – | – | ED50 PTZ [1]: 55 mgkg^−1; protection against seizures [2]: protect mice against seizures; protection against hippocampal kindling [3]: protect cats and rats against hippocampal kindling; protection against hippocampal kindling [4]: protect cats and rats against hippocampal kindling |

From patent US20060287397A1, “Dl-hydroxy-alkyl-phenylamides having anticonvulsive activity” (priority 2002, published 2006)
